{"source": "ChEMBL document CHEMBL4673253", "about": "“Discovery of EST73502, a Dual μ-Opioid Receptor Agonist and σ Receptor Antagonist Clinical Candidate for the Treatment of Pain” (J Med Chem, 2020)", "key": {"[1]": {"experiment": "Toxicity in CD1 mouse assessed as inhibition of intestinal transit by measuring percentage of distance traveled by charcoal meal at 40 mg/kg, po", "assay_type": "organism-based", "conditions": "in vivo"}, "[2]": {"experiment": "Toxicity in CD1 mouse PSNL model assessed as induction of opiate withdrawal by measuring expression of some behavioral signs measured immediately after naloxone injection at 1.25 mg/kg, ip BID for 11 days from day 13 to day 22 and measured on day 23", "assay_type": "organism-based", "conditions": "in vivo, 264 h, time 11 day"}, "[3]": {"experiment": "Toxicity in CD1 mouse PSNL model assessed as induction of opiate withdrawal by measuring expression of some behavioral signs measured immediately after naloxone injection at 5 mg/kg, ip BID for 11 days from day 13 to day 22 and measured on day 23", "assay_type": "organism-based", "conditions": "in vivo, 264 h, time 11 day"}, "Mus musculus [4]": {"system": "Mus musculus", "experiment": "Antinociceptive activity in CD1 mouse PSNL model assessed as reduction in mechanical allodynia by measuring decrease in the pressure required to elicit withdrawal of the ipsilateral paw after von Frey filament stimulation at 5 mg/kg, ip BID for 11 days from day 13 to day 22", "assay_type": "functional", "conditions": "264 h, time 11 day"}, "Mus musculus [5]": {"system": "Mus musculus", "experiment": "Antinociceptive activity in CD1 mouse at 10 to 40 mg/kg, po co-treated with 64 mg/kg, sc sigma1R agonist PRE-084 by paw pressure test", "assay_type": "functional", "conditions": "dose 10-40 mg/kg"}, "Mus musculus [6]": {"system": "Mus musculus", "experiment": "Antinociceptive activity in orally dosed CD1 mouse assessed as by paw pressure test", "assay_type": "functional", "conditions": "CD1, po"}, "[7]": {"experiment": "Thermodynamic solubility of compound at pH 2", "assay_type": "physicochemical", "conditions": "buffer, read-out: Therm_solubility"}, "HepG2 [8]": {"system": "HepG2", "experiment": "Toxicity in human HepG2 cells assessed as reduction in cell viability up to 100 uM by neutral red uptake assay", "assay_type": "cell-based"}, "HepG2 [9]": {"system": "HepG2", "experiment": "Toxicity in human HepG2 cells assessed as reduction in cell viability up to 100 uM by MTT assay", "assay_type": "cell-based"}, "[10]": {"experiment": "Intrinsic clearance in human liver microsomes", "assay_type": "ADME, Microsome", "conditions": "read-out: CLH"}, "CYP3A4": {"target": "CYP3A4 (Homo sapiens, UniProt P08684)", "sequence (P08684 whole entry)": "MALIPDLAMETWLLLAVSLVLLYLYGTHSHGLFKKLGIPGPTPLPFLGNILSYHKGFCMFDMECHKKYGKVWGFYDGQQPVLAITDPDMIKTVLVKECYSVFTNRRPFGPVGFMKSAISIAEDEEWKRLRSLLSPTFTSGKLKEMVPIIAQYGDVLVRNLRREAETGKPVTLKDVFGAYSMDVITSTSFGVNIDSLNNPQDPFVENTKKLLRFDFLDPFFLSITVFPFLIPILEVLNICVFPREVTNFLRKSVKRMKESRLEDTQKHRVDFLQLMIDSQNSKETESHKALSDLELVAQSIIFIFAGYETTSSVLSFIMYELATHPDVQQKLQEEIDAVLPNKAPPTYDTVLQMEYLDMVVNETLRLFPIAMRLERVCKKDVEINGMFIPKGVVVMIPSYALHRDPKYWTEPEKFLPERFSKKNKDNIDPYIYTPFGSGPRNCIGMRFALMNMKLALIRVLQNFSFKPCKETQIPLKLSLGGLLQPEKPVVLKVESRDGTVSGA", "experiment": "Inhibition of human CYP3A4 at 1 uM relative to control", "assay_type": "ADME"}, "CYP2D6": {"target": "CYP2D6 (Homo sapiens, UniProt P10635)", "sequence (P10635 whole entry)": "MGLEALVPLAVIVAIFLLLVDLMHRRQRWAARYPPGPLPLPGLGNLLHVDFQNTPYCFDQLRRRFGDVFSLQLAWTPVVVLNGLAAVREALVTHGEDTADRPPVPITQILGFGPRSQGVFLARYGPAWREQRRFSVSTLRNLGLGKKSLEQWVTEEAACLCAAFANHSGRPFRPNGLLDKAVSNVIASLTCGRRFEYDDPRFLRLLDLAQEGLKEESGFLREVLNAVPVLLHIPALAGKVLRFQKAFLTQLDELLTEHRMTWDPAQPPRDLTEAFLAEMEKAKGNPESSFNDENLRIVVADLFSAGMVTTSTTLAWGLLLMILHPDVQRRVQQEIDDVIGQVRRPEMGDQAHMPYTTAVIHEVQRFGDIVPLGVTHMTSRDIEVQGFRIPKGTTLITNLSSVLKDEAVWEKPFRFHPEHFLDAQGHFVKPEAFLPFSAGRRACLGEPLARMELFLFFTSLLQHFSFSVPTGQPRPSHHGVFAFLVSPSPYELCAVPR", "experiment": "Inhibition of human CYP2D6 at 1 uM relative to control", "assay_type": "ADME"}, "CYP2C19": {"target": "CYP2C19 (Homo sapiens, UniProt P33261)", "sequence (P33261 whole entry)": "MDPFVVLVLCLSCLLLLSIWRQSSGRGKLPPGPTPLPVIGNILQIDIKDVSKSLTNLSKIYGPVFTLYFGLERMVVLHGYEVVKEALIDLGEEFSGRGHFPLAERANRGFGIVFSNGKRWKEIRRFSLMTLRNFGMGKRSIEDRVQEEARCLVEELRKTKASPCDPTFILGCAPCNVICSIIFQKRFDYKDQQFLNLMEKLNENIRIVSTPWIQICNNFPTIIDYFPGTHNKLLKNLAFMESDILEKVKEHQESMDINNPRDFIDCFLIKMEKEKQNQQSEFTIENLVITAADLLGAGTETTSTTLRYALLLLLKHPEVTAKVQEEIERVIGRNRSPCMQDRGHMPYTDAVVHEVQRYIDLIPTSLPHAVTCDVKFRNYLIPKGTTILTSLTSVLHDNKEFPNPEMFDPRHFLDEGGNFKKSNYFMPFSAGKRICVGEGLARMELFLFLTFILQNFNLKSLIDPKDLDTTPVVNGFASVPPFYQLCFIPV", "experiment": "Inhibition of human CYP2C19 at 1 uM relative to control", "assay_type": "ADME"}, "CYP2C9": {"target": "CYP2C9 (Homo sapiens, UniProt P11712)", "sequence (P11712 whole entry)": "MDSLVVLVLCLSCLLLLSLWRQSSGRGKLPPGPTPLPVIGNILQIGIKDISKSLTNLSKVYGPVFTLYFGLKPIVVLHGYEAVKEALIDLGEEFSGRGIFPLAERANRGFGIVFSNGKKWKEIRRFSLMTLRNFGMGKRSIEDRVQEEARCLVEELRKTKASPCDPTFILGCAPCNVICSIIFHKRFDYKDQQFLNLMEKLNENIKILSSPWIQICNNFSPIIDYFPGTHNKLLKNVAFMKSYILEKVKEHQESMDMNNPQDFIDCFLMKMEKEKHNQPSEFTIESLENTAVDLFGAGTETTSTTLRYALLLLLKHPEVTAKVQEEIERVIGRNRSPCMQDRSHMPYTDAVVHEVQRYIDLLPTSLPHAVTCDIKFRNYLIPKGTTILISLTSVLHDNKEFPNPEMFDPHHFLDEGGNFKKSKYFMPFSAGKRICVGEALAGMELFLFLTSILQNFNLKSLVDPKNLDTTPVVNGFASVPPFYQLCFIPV", "experiment": "Inhibition of human CYP2C9 at 1 uM relative to control", "assay_type": "ADME"}, "CYP1A2": {"target": "T1, CYP1A2 (Homo sapiens, UniProt P05177)", "T1 sequence (P05177 whole entry)": "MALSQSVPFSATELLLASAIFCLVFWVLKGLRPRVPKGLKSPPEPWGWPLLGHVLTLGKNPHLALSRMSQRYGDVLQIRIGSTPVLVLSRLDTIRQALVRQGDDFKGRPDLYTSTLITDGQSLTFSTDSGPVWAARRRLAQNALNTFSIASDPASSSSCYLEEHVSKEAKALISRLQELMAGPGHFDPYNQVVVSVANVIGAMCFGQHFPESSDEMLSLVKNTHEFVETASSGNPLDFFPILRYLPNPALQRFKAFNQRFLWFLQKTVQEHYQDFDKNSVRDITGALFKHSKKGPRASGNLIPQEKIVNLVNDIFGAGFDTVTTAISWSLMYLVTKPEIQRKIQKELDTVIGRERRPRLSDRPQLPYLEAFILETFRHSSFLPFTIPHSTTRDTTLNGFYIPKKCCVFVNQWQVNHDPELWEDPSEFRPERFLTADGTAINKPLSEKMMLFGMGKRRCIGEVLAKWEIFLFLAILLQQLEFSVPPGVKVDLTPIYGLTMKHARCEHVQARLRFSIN", "experiment": "Inhibition of human CYP1A2 at 1 uM relative to control", "assay_type": "ADME"}, "[11]": {"experiment": "Mutagenicity in Salmonella typhimurium by Ames test", "assay_type": "toxicity", "conditions": "salmonella enterica subsp. enterica serovar typhimurium"}, "[12]": {"experiment": "Permeability in human Caco-2 cells", "assay_type": "ADME, cell-based"}, "[13]": {"experiment": "Thermodynamic solubility of compound at pH 7.4", "assay_type": "physicochemical", "conditions": "buffer, read-out: Therm_solubility"}, "[14]": {"experiment": "Distribution coefficient, logD of compound at pH 7.4", "assay_type": "physicochemical", "conditions": "octanol/water"}, "[15]": {"experiment": "Lipophilicity, logD of compound", "assay_type": "physicochemical", "conditions": "octanol/water"}, "hERG (KCNH2)": {"target": "hERG (KCNH2) (Homo sapiens, UniProt Q12809)", "sequence (Q12809 whole entry)": "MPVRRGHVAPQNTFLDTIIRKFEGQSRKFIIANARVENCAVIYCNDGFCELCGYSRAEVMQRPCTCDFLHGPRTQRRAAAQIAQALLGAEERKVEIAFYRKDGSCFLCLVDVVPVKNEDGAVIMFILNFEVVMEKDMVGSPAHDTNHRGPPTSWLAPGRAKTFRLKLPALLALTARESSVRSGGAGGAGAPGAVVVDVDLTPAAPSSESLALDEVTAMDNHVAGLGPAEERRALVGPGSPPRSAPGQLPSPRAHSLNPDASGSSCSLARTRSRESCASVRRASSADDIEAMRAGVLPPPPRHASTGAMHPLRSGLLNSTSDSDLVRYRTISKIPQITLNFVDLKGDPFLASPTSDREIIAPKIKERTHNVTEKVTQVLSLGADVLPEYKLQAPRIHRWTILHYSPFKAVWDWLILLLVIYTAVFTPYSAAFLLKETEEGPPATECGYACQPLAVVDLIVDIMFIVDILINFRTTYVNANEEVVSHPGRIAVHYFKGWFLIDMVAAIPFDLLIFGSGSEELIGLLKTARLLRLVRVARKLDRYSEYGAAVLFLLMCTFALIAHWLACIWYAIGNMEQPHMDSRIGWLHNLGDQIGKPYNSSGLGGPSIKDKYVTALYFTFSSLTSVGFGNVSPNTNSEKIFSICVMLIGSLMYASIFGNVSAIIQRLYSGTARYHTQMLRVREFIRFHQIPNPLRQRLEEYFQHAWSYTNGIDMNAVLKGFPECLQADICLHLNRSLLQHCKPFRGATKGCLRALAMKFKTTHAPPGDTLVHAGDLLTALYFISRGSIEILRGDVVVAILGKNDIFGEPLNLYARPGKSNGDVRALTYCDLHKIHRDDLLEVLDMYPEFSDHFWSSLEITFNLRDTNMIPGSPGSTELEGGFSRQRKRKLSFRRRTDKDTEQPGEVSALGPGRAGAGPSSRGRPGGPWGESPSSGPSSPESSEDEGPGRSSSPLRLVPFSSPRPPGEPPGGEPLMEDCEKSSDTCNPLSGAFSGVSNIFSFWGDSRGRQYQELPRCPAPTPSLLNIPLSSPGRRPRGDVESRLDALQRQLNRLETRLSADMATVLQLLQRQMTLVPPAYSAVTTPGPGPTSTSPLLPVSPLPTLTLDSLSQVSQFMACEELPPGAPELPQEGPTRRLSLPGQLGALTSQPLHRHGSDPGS", "experiment": "Inhibition of human ERG expressed in CHO cells at 10 uM at -80 mV holding potential by whole cell patch clamp assay", "assay_type": "cell-based", "conditions": "CHO cells expressing human ERG"}, "[16]": {"target": "T2, Alpha-1A adrenergic receptor (Homo sapiens) (UniProt P35348)", "T2 sequence (whole entry)": "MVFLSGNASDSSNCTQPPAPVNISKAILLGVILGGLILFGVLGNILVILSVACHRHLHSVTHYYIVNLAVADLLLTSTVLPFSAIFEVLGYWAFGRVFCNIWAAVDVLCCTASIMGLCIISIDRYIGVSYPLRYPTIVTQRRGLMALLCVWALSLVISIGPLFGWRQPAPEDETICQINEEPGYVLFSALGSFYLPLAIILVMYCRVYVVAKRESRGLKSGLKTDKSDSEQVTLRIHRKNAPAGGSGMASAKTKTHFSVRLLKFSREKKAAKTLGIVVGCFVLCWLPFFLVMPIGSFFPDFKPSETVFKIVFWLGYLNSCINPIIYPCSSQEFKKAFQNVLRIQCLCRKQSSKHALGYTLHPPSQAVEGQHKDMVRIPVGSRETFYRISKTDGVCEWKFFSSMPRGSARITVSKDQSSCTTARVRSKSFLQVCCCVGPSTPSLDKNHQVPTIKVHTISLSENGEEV", "experiment": "Binding affinity to human alpha1A adrenoreceptor expressed in membranes assessed as inhibition of [3H]-prazosin binding incubated for 90 mins by scintillation counting method", "set-up": "concentration or dose not given beside the values", "conditions": "Cell membrane"}, "[17]": {"target": "Voltage-gated inwardly rectifying potassium channel KCNH2 (Homo sapiens, UniProt Q12809)", "sequence (Q12809 whole entry)": "as the sequence (Q12809 whole entry) above", "description": "Inhibition of human ERG expressed in CHO cells at -80 mV holding potential by whole cell patch clamp assay"}}}
{"molecule": "CCN1CC2(CCN(CCc3cc(F)ccc3F)CC2)O[C@H](C)C1=O", "values": [{"measurement": "Activity", "setting": "[1]", "result": "Non-Toxic"}, {"measurement": "Activity", "setting": "[2]", "result": "Non-Toxic"}, {"measurement": "Activity", "setting": "[3]", "result": "Non-Toxic"}, {"measurement": "inhibition in vivo at 5 mg/kg", "setting": "Mus musculus [4]", "result": 56, "unit": "%"}, {"measurement": "Emax", "setting": "Mus musculus [5]", "result": 40, "unit": "%"}, {"measurement": "Emax", "setting": "Mus musculus [6]", "result": 64, "unit": "%"}, {"measurement": "solubility thermodynamic", "setting": "[7]", "result": 45.1, "unit": "mg/mL"}, {"measurement": "Activity", "setting": "HepG2 [8]", "result": "Non-Toxic"}, {"measurement": "Activity", "setting": "HepG2 [9]", "result": "Non-Toxic"}, {"measurement": "microsomal CLint", "setting": "[10]", "result": 2.4, "unit": "µL/min/mg"}, {"measurement": "inhibition at 1 µM", "setting": "CYP3A4", "result": "< 50", "unit": "%"}, {"measurement": "inhibition at 1 µM", "setting": "CYP2D6", "result": "< 50", "unit": "%"}, {"measurement": "inhibition at 1 µM", "setting": "CYP2C19", "result": "< 50", "unit": "%"}, {"measurement": "inhibition at 1 µM", "setting": "CYP2C9", "result": "< 50", "unit": "%"}, {"measurement": "inhibition at 1 µM", "setting": "CYP1A2", "result": "< 50", "unit": "%"}, {"measurement": "Activity", "setting": "[11]", "result": "Non-Toxic"}, {"measurement": "Papp", "setting": "[12]", "result": 34.9, "unit": "×10⁻⁶ cm/s"}, {"measurement": "solubility thermodynamic", "setting": "[13]", "result": 17.7, "unit": "mg/mL"}, {"measurement": "logD", "setting": "[14]", "result": 2}, {"measurement": "logD", "setting": "[15]", "result": 2.7}, {"measurement": "inhibition at 10 µM", "setting": "hERG (KCNH2)", "result": "< 50", "unit": "%"}, {"measurement": "inhibition", "setting": "[16]", "result": 21, "unit": "%"}, {"measurement": "IC50", "setting": "[17]", "result": "> 10", "unit": "µM"}]}
